Assay results as given in PMC10135033, “Sulfonamidoboronic Acids as “Cross-Class” Inhibitors of an Expanded-Spectrum Class C Cephalosporinase, ADC-33, and a Class D Carbapenemase, OXA-24/40: Strategic Compound Design to Combat Resistance in Acinetobacter baumannii” (Antibiotics, 2023).

Legend:
[1] = system: E. coli DH10B, ADC-33 in pBCSK-; test: Antimicrobial susceptibility testing, broth microdilution; type: cell-based; conditions: BLI none; E. coli DH10B ADC-33 pBCSK-
Description: (§1) Based upon the inhibitor kinetics (Ki determinations), CR167 and the sulfonamidoboronic acid 6b were tested against E. coli strains expressing ADC-7 and ADC-33 cloned into pBCSK- (DH10B) (Table 3).
(§2) blaADC-7 pBCSK- and blaADC-33 pBCSK- were cloned and expressed in E. coli DH10B cells as previously described.
(§3) Testing of susceptibility to standard antibiotics was performed with broth microdilution according to CLSI guidelines. MICs for CAZ, CTX, FEP, and IMI were determined using cation-adjusted Mueller–Hinton broth according to CLSI methods, and CR167 or 6b was used at a fixed concentration of 10 mg/L. All MICs were interpreted according to the 2022 Clinical and Laboratory Standards Institute (CLSI) guidelines.

[2] = system: E. coli DH10B, ADC-7 in pBCSK-; test: as above; type: cell-based; conditions: BLI none; E. coli DH10B ADC-7 pBCSK-
Description: as §1, §2, §3

[3] = system: A. baumannii ATCC 17978 native ADC KO, ADC-33 pQF1266; test: as above; type: cell-based; conditions: BLI none; ATCC 17978 ADC KO, ADC-33 pQF1266
Description: (§4) The inhibitory effects of both compounds were tested against ADC-33 and OXA-24/-40 in A. baumannii, their native host. ATCC 17978, with its intrinsic chromosomal ADC knocked out (intrinsic OXA still present), was used in these experiments. In this isolate, the ADC MICs were not lowered by the inhibitors as much as they were against the E. coli background (Table 4).
Plasmid pBCSK- containing the blaADC-33 gene was digested with PvuII, which released the blaADC-33 gene, along with the lac promoter, which drives expression. This PvuII fragment was cloned into the SmaI site of the pQF1266 plasmid.
(§5) pWH1266 is a vector that replicates in A. baumannii, and the […] pWH1266 construct was generated as follows. The TEM gene was removed using inverse PCR, and an Xba1 site was engineered into the vector. blaOXA-24/40 and its upstream XerC/XerD were amplified from strain NM55. The amplified gene was cloned into the Xba1 site of the altered pWH1266 vector. The construct was confirmed using PCR and sequencing. Both blaADC-33 pQF1266 and […] pWH1266 were then expressed in A. baumannii ATCC 17978 that had the intrinsic chromosomal ADC gene knocked out.
(§6) The chromosomal blaADC-51 gene in ATCC 17978 was deleted and replaced with an apramycin resistance cassette using the recombineering method described by Tucker et al.. Primers used for this deletion were: Del AmpC-apra.For: […]; and Del AmpC-apra.Rev: […]. The correct deletion mutant was confirmed using PCR and sequencing.
as §3

[4] = system: A. baumannii ATCC 17978 native ADC KO, OXA-24 pWH1266; test: as above; type: cell-based; conditions: BLI none; ATCC 17978 ADC KO, OXA-24 pWH1266
Description: as §4, §5, §6, §3

[5] = system: clinical A. baumannii isolate PR323 (OXA-24, OXA-65, ADC-218); test: Antimicrobial susceptibility testing, clinical isolate, broth microdilution; type: cell-based; conditions: BLI none; PR323
Description: (§7) Clinical A. baumannii isolates containing ADC-33 or OXA-24/-40 in combination with various other well-defined β-lactamases were also tested against CR167 and 6b (Table 5).
(§8) The clinical A. baumannii isolates used to test the β-lactamase inhibitors were selected from a previously well-characterized collection in our lab. They were chosen as they had either ADC-33 and/or OXA-24 in combination with other known β-lactamases (for specific combinations, see Table 5).
as §3

[6] = system: clinical A. baumannii isolate PR328 (OXA-23, OXA-82, ADC-33); test: as above; type: cell-based; conditions: BLI none; PR328
Description: as §7, §8, §3

[7] = system: clinical A. baumannii isolate PR378 (OXA-24, OXA-65, TEM-1); test: as above; type: cell-based; conditions: BLI none; PR378
Description: as §7, §8, §3

[8] = system: clinical A. baumannii isolate PR396 (OXA-82, ADC-33); test: as above; type: cell-based; conditions: BLI none
Description: as §7, §8, §3

[9] = system: clinical A. baumannii isolate PR408 (OXA-24, OXA-71, ADC-212); test: as above; type: cell-based; conditions: BLI none; PR408
Description: as §7, §8, §3

[10] = system: clinical A. baumannii isolate PR462 (OXA-24, OXA-65, ADC-214); test: as above; type: cell-based; conditions: BLI none
Description: as §7, §8, §3

[11] = system: clinical A. baumannii isolate PR474 (OXA-23, OXA-24, OXA-65, ADC-218); test: as above; type: cell-based; conditions: BLI none; PR474
Description: as §7, §8, §3

ADC-33 = ADC-33 (Acinetobacter baumannii, UniProt A7Y407); test: Ki determination, competition assay with nitrocefin (NCF) as substrate; type: biochemical; conditions: for Ki: corrected for NCF affinity, 5 min pre-incubation, pH 7.4
Description: (§9) The affinity of CR167 for the two different β-lactamases was measured in competition assays using nitrocefin (NCF) as the indicator substrate (Table 1).
(§10) The binding affinity of each of the compounds 6a–e with ADC-33 and with OXA-24/40 was determined after 5 min pre-incubation of boronic acid and the enzyme, using competition assays with nitrocefin (NCF) as the substrate. […] These compounds differ in three structural characteristics: stereochemistry, the presence of the m-carboxylate on the aromatic ring, and the small chain linked to the chiral center. […] Finally, the smaller the steric hindrance is at the R1 position, the higher the affinity is.
(§11) Ki values were determined by using nitrocefin as a reporter substrate and treating the compounds as competitive inhibitors. Steady-state kinetic parameters were determined by combining pure enzyme with nitrocefin in 50 mM NaH2PO4; 25 mM NaHCO3, pH 7.4 (for OXA-24/40); or 50 mM NaH2PO4, pH 7.4 (for ADC-33), at room temperature. Changes in absorbance were measured on a Cary 60 UV−Vis spectrophotometer (Agilent Technologies) and converted to velocity using the change-in-extinction coefficient specific to nitrocefin (ε = 17,400 M^−1·cm^−1 at 482 nm). Initial velocities were fit to the Michaelis–Menten equation, yielding kcat and Km values. Next, the enzyme was challenged with a constant concentration of nitrocefin and increasing amounts of inhibitor. IC50 values were used to calculate Ki values using the Cheng–Prusoff equation as previously described. Specifically, the measurements of the initial velocities were performed with the addition of 100 µM NCF after a 5 min pre-incubation of the enzyme (2 nM) with increasing concentration of the inhibitor [37]. To determine the average velocities (v0), data from three experiments were fit to Equation (1): (1) v0=vu −{vu[I]/IC 50+[I]} where vu represents the NCF uninhibited velocity and IC50 represents the inhibitor concentration that results in a 50% reduction in vu. The Ki value was corrected for the NCF affinity (Km values for both OXA-24/40 and ADC-33) with the Cheng–Prusoff equation (Equation (2)): (2) Ki=IC50/(1+[NCF]/KmNCF)

OXA-24/40 [12] = biological target: T1, OXA-24/40 (Acinetobacter baumannii, UniProt Q8RLA6); test: as above; type: biochemical; conditions: corrected for NCF affinity; 5 min pre-incubation; pH 7.4, 25 mM NaHCO3; read-out: Ki OXA-24/40
T1 construct: made in house
Description: as §9, §10, §11

OXA-24/40 [13] = system: OXA-24/40; parameters: method as in PMID 20299220; conditions: cited from earlier work
[14] = system: E. coli DH10B pBCSK, blaADC-7; parameters: method as in PMID 29144724; conditions: without inhibitor; cited from earlier work

T1 sequence (Q8RLA6 22-275): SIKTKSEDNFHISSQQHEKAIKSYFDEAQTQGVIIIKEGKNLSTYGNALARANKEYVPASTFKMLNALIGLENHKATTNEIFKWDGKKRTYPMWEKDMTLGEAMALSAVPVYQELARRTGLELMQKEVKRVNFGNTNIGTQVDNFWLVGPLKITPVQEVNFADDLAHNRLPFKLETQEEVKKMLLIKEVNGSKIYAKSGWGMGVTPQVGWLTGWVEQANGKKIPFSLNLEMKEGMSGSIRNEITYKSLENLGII

SMILES	MIC, antibiotic alone [1]	MIC, antibiotic alone [2]	MIC, antibiotic alone [3]	MIC, antibiotic alone [4]	MIC, antibiotic alone [5]	MIC, antibiotic alone [6]	MIC, antibiotic alone [7]	MIC, antibiotic alone [8]	MIC, antibiotic alone [9]	MIC, antibiotic alone [10]	MIC, antibiotic alone [11]	Ki (ADC-33)	Ki (OXA-24/40 [12])	further results
CO/N=C(\C(=O)N[C@@H]1C(=O)N2C(C(=O)O)=C(COC(C)=O)CS[C@H]12)c1csc(N)n1 [CTX, Cefotaxime, reference compound]	128 µg/mL	64 µg/mL	32 µg/mL	16 µg/mL	2048 µg/mL	256 µg/mL	64 µg/mL	512 µg/mL	1024 µg/mL	1024 µg/mL	1024 µg/mL	–	–	–
CC[C@H](NS(=O)(=O)Cc1cccc(C(=O)O)c1)B(O)O [6e]	–	–	–	–	–	–	–	–	–	–	–	3.7 ± 0.6 µM	> 1000 µM	–
O=S(=O)(NCB(O)O)c1cc2c(Cl)ccc(Cl)c2s1 [DSABA, 4,7-dichloro-1-benzothien-2-yl-sulfonylaminomethyl boronic acid]	–	–	–	–	–	–	–	–	–	–	–	–	–	IC50 (OXA-24/40 [13]): 5.6 µM
C[C@@H](O)[C@H]1C(=O)N2C(C(=O)O)=C(SCCN=CN)C[C@H]12 [IMI, reference compound]	–	–	–	–	128 µg/mL	128 µg/mL	256 µg/mL	64 µg/mL	128 µg/mL	64 µg/mL	128 µg/mL	–	–	–
CC[C@@H](NS(=O)(=O)Cc1cccc(C(=O)O)c1)B(O)O [6d]	–	–	–	–	–	–	–	–	–	–	–	22 ± 3 µM	320 ± 30 µM	–
CC[C@@H](NS(=O)(=O)Cc1ccccc1)B(O)O [6c]	–	–	–	–	–	–	–	–	–	–	–	193 ± 23 µM	> 1000 µM	–
C[C@@H](NS(=O)(=O)Cc1ccccc1)B(O)O [6a]	–	–	–	–	–	–	–	–	–	–	–	3.1 ± 0.5 µM	630 ± 70 µM	fold less potent than 6b, ADC-33 (ADC-33; ratio of Ki, 6a vs 6b): 4 fold
CO/N=C(\C(=O)N[C@@H]1C(=O)N2C(C(=O)[O-])=C(C[N+]3(C)CCCC3)CS[C@H]12)c1csc(N)n1 [FEP, cefepime, reference compound]	0.5 µg/mL	0.5 µg/mL	4 µg/mL	32 µg/mL	–	–	–	–	–	–	–	–	–	–
CC(C)(O/N=C(\C(=O)N[C@@H]1C(=O)N2C(C(=O)[O-])=C(C[n+]3ccccc3)CS[C@H]12)c1csc(N)n1)C(=O)O [CAZ, ceftazidime, reference compound]	2048 µg/mL	64 µg/mL	128 µg/mL	8 µg/mL	4096 µg/mL	2048 µg/mL	64 µg/mL	2048 µg/mL	1024 µg/mL	256 µg/mL	4096 µg/mL	–	–	MIC for CAZ alone [14]: 64 µg/mL
